Experimental data from patent US20230265151A1, “GIP/GLP1 CO-AGONIST COMPOUNDS” (priority 2020, published 2023).
Where two headings read alike, the source gives them in different places.

Tests used:
hGLP-1R = hGLP-1R (Homo sapiens, UniProt P43220); test: Functional cAMP formation (HTRF) in HEK-293 clonal cells expressing hGLP-1R, 0.1% bovine casein, without or with 1.0% human serum albumin; format: cell-based; design: expressed in transfected cells; details: for Emax: 37° C.; for EC50: cAMP, incubated at 37° C., 0.1% bovine casein (no human serum albumin), geometric mean
Experimental: After a 30-min incubation at 37° C., the resulting increase in intracellular cAMP is quantitatively determined using a CisBio cAMP Dynamic 2 HTRF Assay Kit (62AM4PEJ). Briefly, cAMP levels within the cell are detected by adding the cAMP-d2 conjugate in cell lysis buffer (10 µL) followed by the antibody anti-cAMP-Eu^3+-Cryptate, also in cell lysis buffer (10 µL). The resulting competitive assay is incubated for at least 60 min at room temperature, and then is detected using a PerkinElmer Envision® instrument with excitation at 320 nm and emission at 665 nm and 620 nm. Envision units (emission at 665 nm/620 nm* 10,000) are inversely proportional to the amount of cAMP present and are converted to nM cAMP per well us-ing a cAMP standard curve. […] A relative EC50 value and percent top (Emax) are derived by non-linear regression analysis using the percent maximal response vs. the concentration of peptide added, fitted to a four-parameter logistic equation.

hGCGR = biological target: T1, hGCGR (Homo sapiens, UniProt P47871); test: Functional cAMP formation (HTRF) in HEK-293 clonal cells expressing hGCGR, 0.1% bovine casein, without or with 1.0% human serum albumin; format: cell-based; details: geometric mean
T1 construct: expressed in transfected cells
Summary of the method: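 Readings of the HTRF 665/620 nm ratio, which falls as cAMP rises, were converted to nM cAMP using a standard curve after 30 min peptide exposure at 37° C.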

[1] = HEK293, read-out: hGLP-1R Emax, % ± SEM, percent of maximal response to GLP-1(7-36)NH2, 0.1% bovine casein, arithmetic mean
[2] = hGCGR EC50, nM (SEM, n), cAMP, incubated at 37° C., 0.1% bovine casein (no human serum albumin)
[3] = HEK293, percent of maximal response to GLP-1(7-36)NH2, 0.1% bovine casein, arithmetic mean, read-out: hGLP-1R Emax, % ± SEM
[4] = read-out: hGLP-1R EC50, nM (SEM, n)
[5] = cAMP, incubated at 37° C., 0.1% bovine casein (no human serum albumin), read-out: hGCGR EC50, nM (SEM, n)

Chain of hGLP-1R (P43220 24-463): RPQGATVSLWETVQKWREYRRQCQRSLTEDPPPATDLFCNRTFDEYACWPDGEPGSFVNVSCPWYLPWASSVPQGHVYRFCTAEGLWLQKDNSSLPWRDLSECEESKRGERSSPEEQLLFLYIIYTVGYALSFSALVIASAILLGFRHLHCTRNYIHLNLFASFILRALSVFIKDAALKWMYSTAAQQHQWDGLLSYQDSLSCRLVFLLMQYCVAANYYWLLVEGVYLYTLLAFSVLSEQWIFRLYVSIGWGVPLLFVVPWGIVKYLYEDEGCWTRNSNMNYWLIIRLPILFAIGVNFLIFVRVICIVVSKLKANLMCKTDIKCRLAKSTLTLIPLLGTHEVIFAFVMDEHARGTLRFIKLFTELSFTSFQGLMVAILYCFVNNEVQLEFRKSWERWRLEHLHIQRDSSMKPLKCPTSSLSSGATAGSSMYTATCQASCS
T1 sequence (P47871 26-477): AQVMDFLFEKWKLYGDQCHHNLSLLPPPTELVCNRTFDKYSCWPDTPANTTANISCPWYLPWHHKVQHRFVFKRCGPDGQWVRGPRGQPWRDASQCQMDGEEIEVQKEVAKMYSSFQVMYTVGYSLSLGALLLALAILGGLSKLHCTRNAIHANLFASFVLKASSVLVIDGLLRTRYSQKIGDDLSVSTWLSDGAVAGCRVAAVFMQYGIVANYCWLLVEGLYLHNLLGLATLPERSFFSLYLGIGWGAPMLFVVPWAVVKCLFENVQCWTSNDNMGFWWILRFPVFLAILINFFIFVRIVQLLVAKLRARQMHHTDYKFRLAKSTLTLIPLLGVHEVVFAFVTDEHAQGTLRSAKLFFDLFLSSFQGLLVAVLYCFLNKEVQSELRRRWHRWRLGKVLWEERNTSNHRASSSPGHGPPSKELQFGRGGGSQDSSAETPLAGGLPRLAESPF

Row | Compound | Emax (hGLP-1R; [1]) [%] | EC50 (hGLP-1R; hGLP-1R EC50, nM (SEM, n)) [nM] | EC50 (hGCGR; [2]) [nM] | Emax (hGLP-1R; [3]) [%] | EC50 (hGLP-1R; [4]) [nM] | EC50 (hGCGR; [5]) [nM] | Emax (hGLP-1R; HEK293, 0.1% bovine casein and 1.0% human serum albumin, percent of maximal response to GLP-1(7-36)NH2, read-out: hGLP-1R Emax, % ± SEM) [%] | EC50 (hGCGR; 0.1% bovine casein and 1.0% human serum albumin, 37° C., read-out: hGCGR EC50, nM (SEM, n)) [nM]
1 | CC[C@H](C)[C@H](NC(=O)[C@H](CC(C)C)NC(=O)[C@](C)(Cc1ccc(O)cc1)NC(=O)[C@H](CCCCNC(=O)[C@@H](N)CCCCNC(=O)CC[C@H](NC(=O)CCCCCCCCCCCCC(=O)O)C(=O)O)NC(=O)[C@@H](NC(=O)[C@H](Cc1ccccc1)NC(=O)[C@H](CCC(=O)O)NC(=O)C(C)(C)NC(=O)[C@H](CCC(N)=O)NC(=O)[C@H](C)NC(=O)[C@H](CCCCNC(=O)[C@@H](N)CCCCNC(=O)CC[C@H](NC(=O)CCCCCCCCCCCCC(=O)O)C(=O)O)NC(=O)[C@H](CCCN)NC(=O)[C@H](CC(=O)O)NC(=O)[C@H](CC(C)C)NC(=O)[C@](C)(CC(C)C)NC(=O)[C@@H](NC(=O)C(C)(C)NC(=O)[C@@H](NC(=O)[C@H](CC(=O)O)NC(=O)[C@H](CO)NC(=O)[C@@H](NC(=O)[C@](C)(Cc1ccccc1F)NC(=O)[C@@H](NC(=O)CNC(=O)[C@H](CCC(=O)O)NC(=O)C(C)(C)NC(=O)[C@@H](N)Cc1ccc(O)cc1)[C@@H](C)O)[C@@H](C)O)C(C)C)[C@@H](C)CC)[C@@H](C)CC)C(=O)N[C@@H](CCC(=O)O)C(=O)NCC(=O)NCC(=O)N1CCC[C@H]1C(=O)N[C@@H](CO)C(=O)N[C@@H](CO)C(=O)NCC(=O)N[C@@H](C)C(=O)N1CCC[C@H]1C(=O)N1CCC[C@H]1C(=O)N1CCC[C@H]1C(=O)N[C@@H](CO)C(N)=O [Example 167] | 91.4 ± 3.21 | 0.217 | > 9950 | – | – | – | – | –
2 | CC[C@H](C)[C@H](NC(=O)[C@H](CC(C)C)NC(=O)[C@](C)(Cc1ccc(O)cc1)NC(=O)[C@@H](CCC(=O)O)NC(=O)[C@@H](NC(=O)[C@H](Cc1ccccc1)NC(=O)[C@H](CCC(=O)O)NC(=O)C(C)(C)NC(=O)[C@H](CCC(N)=O)NC(=O)[C@H](C)NC(=O)[C@H](CCCCNC(=O)COCCOCCNC(=O)COCCOCCNC(=O)CC[C@H](NC(=O)CCCCCCCCCOc1ccc(C(=O)O)cc1)C(=O)O)NC(=O)[C@H](CCCN)NC(=O)[C@H](CC(=O)O)NC(=O)[C@H](CC(C)C)NC(=O)[C@](C)(CC(C)C)NC(=O)[C@@H](NC(=O)[C@H](CO)NC(=O)[C@H](Cc1ccncc1)NC(=O)[C@H](CC(=O)O)NC(=O)[C@H](CO)NC(=O)[C@@H](NC(=O)[C@](C)(Cc1ccccc1F)NC(=O)[C@@H](NC(=O)CNC(=O)[C@H](CCC(=O)O)NC(=O)C(C)(C)NC(=O)[C@@H](N)Cc1ccc(O)cc1)[C@@H](C)O)[C@@H](C)O)[C@@H](C)CC)[C@@H](C)CC)C(=O)N[C@@H](CCCCNC(=O)COCCOCCNC(=O)COCCOCCNC(=O)CC[C@H](NC(=O)CCCCCCCCCOc1ccc(C(=O)O)cc1)C(=O)O)C(=O)NCC(=O)NCC(=O)N1CCC[C@H]1C(=O)N[C@@H](CO)C(=O)N[C@@H](CO)C(=O)NCC(=O)N[C@@H](C)C(=O)N1CCC[C@H]1C(=O)N1CCC[C@H]1C(=O)N1CCC[C@H]1C(=O)N[C@@H](CO)C(N)=O [Example 129] | 97.9 | 1.28 | > 9950 | – | – | – | – | –
3 | CC[C@H](C)[C@H](NC(=O)[C@H](CC(C)C)NC(=O)[C@](C)(Cc1ccc(O)cc1)NC(=O)[C@@H](CCC(=O)O)NC(=O)[C@@H](NC(=O)[C@H](Cc1ccccc1)NC(=O)[C@H](CCC(=O)O)NC(=O)[C@H](CCCN)NC(=O)[C@H](CCC(N)=O)NC(=O)[C@H](C)NC(=O)[C@H](CCCCNC(=O)COCCOCCNC(=O)COCCOCCNC(=O)CC[C@H](NC(=O)CCCCCCCCCCCCC(=O)O)C(=O)O)NC(=O)[C@H](CCCN)NC(=O)[C@H](CC(=O)O)NC(=O)[C@H](CC(C)C)NC(=O)[C@](C)(CC(C)C)NC(=O)[C@@H](NC(=O)[C@H](CO)NC(=O)[C@H](Cc1ccncc1)NC(=O)[C@H](CC(=O)O)NC(=O)[C@H](CO)NC(=O)[C@@H](NC(=O)[C@](C)(Cc1ccccc1F)NC(=O)[C@@H](NC(=O)CNC(=O)[C@H](CCC(=O)O)NC(=O)C(C)(C)NC(=O)[C@@H](N)Cc1ccc(O)cc1)[C@@H](C)O)[C@@H](C)O)[C@@H](C)CC)[C@@H](C)CC)C(=O)N[C@@H](CCC(=O)O)C(=O)NCC(=O)NCC(=O)N[C@@H](CCCCNC(=O)COCCOCCNC(=O)COCCOCCNC(=O)CC[C@H](NC(=O)CCCCCCCCCCCCC(=O)O)C(=O)O)C(=O)N[C@@H](CO)C(=O)N[C@@H](CO)C(=O)NCC(=O)N[C@@H](C)C(=O)N1CCC[C@H]1C(=O)N1CCC[C@H]1C(=O)N1CCC[C@H]1C(=O)N[C@@H](CO)C(N)=O [Example 149] | – | – | – | 98.3 ± 0.579 | 1.5 | > 9950 | – | –
4 | CC[C@H](C)[C@H](NC(=O)[C@H](CC(C)C)NC(=O)[C@](C)(Cc1ccc(O)cc1)NC(=O)[C@@H](CCC(=O)O)NC(=O)[C@@H](NC(=O)[C@H](Cc1ccccc1)NC(=O)[C@H](CCCCNC(=O)COCCOCCNC(=O)COCCOCCNC(=O)CC[C@H](NC(=O)CCCCCCCCCOc1ccc(C(=O)O)cc1)C(=O)O)NC(=O)C(C)(C)NC(=O)[C@H](CCC(N)=O)NC(=O)[C@H](C)NC(=O)[C@H](CCCCNC(=O)COCCOCCNC(=O)COCCOCCNC(=O)CC[C@H](NC(=O)CCCCCCCCCOc1ccc(C(=O)O)cc1)C(=O)O)NC(=O)[C@H](CCCN)NC(=O)[C@H](CC(=O)O)NC(=O)[C@H](CC(C)C)NC(=O)[C@](C)(CC(C)C)NC(=O)[C@@H](NC(=O)[C@H](CO)NC(=O)[C@H](Cc1ccncc1)NC(=O)[C@H](CC(=O)O)NC(=O)[C@H](CO)NC(=O)[C@@H](NC(=O)[C@](C)(Cc1ccccc1F)NC(=O)[C@@H](NC(=O)CNC(=O)[C@H](CCC(=O)O)NC(=O)C(C)(C)NC(=O)[C@@H](N)Cc1ccc(O)cc1)[C@@H](C)O)[C@@H](C)O)[C@@H](C)CC)[C@@H](C)CC)C(=O)N[C@@H](CCC(=O)O)C(=O)NCC(=O)NCC(=O)N1CCC[C@H]1C(=O)N[C@@H](CO)C(=O)N[C@@H](CO)C(=O)NCC(=O)N[C@@H](C)C(=O)N1CCC[C@H]1C(=O)N1CCC[C@H]1C(=O)N1CCC[C@H]1C(=O)N[C@@H](CO)C(N)=O [Example 127] | 98.5 | – | > 9950 | – | – | – | – | –
5 | CC[C@H](C)[C@H](NC(=O)[C@H](CC(C)C)NC(=O)[C@](C)(Cc1ccc(O)cc1)NC(=O)[C@@H](CCC(=O)O)NC(=O)[C@@H](NC(=O)[C@H](Cc1ccccc1)NC(=O)[C@H](CCC(=O)O)NC(=O)C(C)(C)NC(=O)[C@H](CCC(N)=O)NC(=O)[C@H](C)NC(=O)[C@H](CCCCNC(=O)COCCOCCNC(=O)COCCOCCNC(=O)CC[C@H](NC(=O)CCCCCCCCCCCCC(=O)O)C(=O)O)NC(=O)[C@H](CCCN)NC(=O)[C@H](CC(=O)O)NC(=O)[C@H](CC(C)C)NC(=O)[C@](C)(CC(C)C)NC(=O)[C@@H](NC(=O)[C@H](CO)NC(=O)C1(NC(=O)[C@H](CC(=O)O)NC(=O)[C@H](CO)NC(=O)[C@@H](NC(=O)[C@](C)(Cc2ccccc2F)NC(=O)[C@@H](NC(=O)CNC(=O)[C@H](CCC(=O)O)NC(=O)C(C)(C)NC(=O)[C@@H](N)Cc2ccc(O)cc2)[C@@H](C)O)[C@@H](C)O)CCCC1)[C@@H](C)CC)[C@@H](C)CC)C(=O)N[C@@H](CCC(=O)O)C(=O)NCC(=O)NCC(=O)N[C@@H](CCCCNC(=O)COCCOCCNC(=O)COCCOCCNC(=O)CC[C@H](NC(=O)CCCCCCCCCCCCC(=O)O)C(=O)O)C(=O)N[C@@H](CO)C(=O)N[C@@H](CO)C(=O)NCC(=O)N[C@@H](C)C(=O)N1CCC[C@H]1C(=O)N1CCC[C@H]1C(=O)N1CCC[C@H]1C(=O)N[C@@H](CO)C(N)=O [Example 53] | – | – | – | 89.9 ± 9.41 | 0.18 | > 9950 | 89.3 ± 6.12 | > 9950
6 | CC[C@H](C)[C@H](NC(=O)[C@H](CC(C)C)NC(=O)[C@](C)(Cc1ccc(O)cc1)NC(=O)[C@H](CCCCNC(=O)COCCOCCNC(=O)COCCOCCNC(=O)CC[C@H](NC(=O)CCCCCCCCCCCCC(=O)O)C(=O)O)NC(=O)[C@@H](NC(=O)[C@](C)(Cc1ccccc1)NC(=O)[C@H](CCC(=O)O)NC(=O)C(C)(C)NC(=O)[C@H](CCC(N)=O)NC(=O)[C@H](C)NC(=O)[C@H](CCCCNC(=O)COCCOCCNC(=O)COCCOCCNC(=O)CC[C@H](NC(=O)CCCCCCCCCCCCC(=O)O)C(=O)O)NC(=O)[C@H](CCCN)NC(=O)[C@H](CC(=O)O)NC(=O)[C@H](CC(C)C)NC(=O)[C@](C)(CC(C)C)NC(=O)[C@@H](NC(=O)[C@H](CO)NC(=O)C1(NC(=O)[C@H](CC(=O)O)NC(=O)[C@H](CO)NC(=O)[C@@H](NC(=O)[C@](C)(Cc2ccccc2F)NC(=O)[C@@H](NC(=O)CNC(=O)[C@H](CCC(=O)O)NC(=O)C(C)(C)NC(=O)[C@@H](N)Cc2ccc(O)cc2)[C@@H](C)O)[C@@H](C)O)CCCC1)[C@@H](C)CC)[C@@H](C)CC)C(=O)N[C@@H](CCC(=O)O)C(=O)NCC(=O)NCC(=O)N1CCC[C@H]1C(=O)N[C@@H](CO)C(=O)N[C@@H](CO)C(=O)NCC(=O)N[C@@H](C)C(=O)N1CCC[C@H]1C(=O)N1CCC[C@H]1C(=O)N1CCC[C@H]1C(=O)N[C@@H](CO)C(N)=O [Example 120] | – | 1.43 | > 9950 | – | – | – | – | –
